The text below walks through data of ChEMBL document CHEMBL3352491, “Novel semicarbazides and ureas of primaquine with bulky aryl or hydroxyalkyl substituents: synthesis, cytostatic and antioxidative activity” (Eur J Med Chem, 2014).

The subject of one data set is SW-620. Nature of the data set: Cytostatic activity against human SW620 cells assessed as growth inhibition after 3 to 4 days by MTT assay. Format: functional, cell-based.
The next data set concerns L1210. As to the kind of experiment: Cytostatic activity against mouse L1210 cells assessed as growth inhibition after 3 to 4 days by MTT assay. Type of data set: functional, cell-based. Background: Tetrazolium dyes change colour on reduction, which living cells bring about.
The nature of data set [1]: Cytostatic activity against human MIAPaCa2 cells assessed as growth inhibition after 3 to 4 days by MTT assay. Format: functional, cell-based. The following applies: MIA PaCa-2.
Another data set deals with MCF7. Nature of the data set: Cytostatic activity against human MCF7 cells assessed as growth inhibition after 3 to 4 days by MTT assay. Format: functional, cell-based.
Data set [2] in a line: Antioxidant activity assessed as DPPH scavenging activity at 100 uM after 20 mins by spectrophotometry. Format: physicochemical. In general terms: The DPPH test is a chemical assay of radical scavenging.
The next data set has as its system CCRF-CEM. Nature of the data set: Cytostatic activity against human CEM cells assessed as growth inhibition after 3 to 4 days by MTT assay. Type of data set: functional, cell-based.
Another data set has as its system HeLa. As to the kind of experiment: Cytostatic activity against human HeLa cells assessed as growth inhibition after 3 to 4 days by MTT assay. Format: functional, cell-based.
The nature of data set [3]: Cytostatic activity against human H460 cells assessed as growth inhibition after 3 to 4 days by MTT assay. The following applies: NCI-H460. Type of data set: functional, cell-based.
Data set [4] is described as follows: Cytostatic activity against human Molt4/C8 cells assessed as growth inhibition after 3 to 4 days by MTT assay. Type of data set: functional, cell-based. The following applies: MOLT-4.
Data set [5] can be described thus: Antioxidant activity assessed as DPPH scavenging activity at 100 uM after 60 mins by spectrophotometry. Format: physicochemical. The following applies: 1 h.
The nature of data set [6]: Antioxidant activity assessed as inhibition of lipid peroxidation at 100 uM by spectrophotometry. Type of data set: physicochemical.
The target in data set [7] is Lipoxygenase (Glycine max) (UniProt Q39829). As to the kind of experiment: Inhibition of soybean LOX using sodium linoleate as substrate at 100 uM by spectrophotometry.

Turning to `COc1cc(NC(C)CCCNC(=O)NNC(=O)NC(CO)(CO)CO)c2ncccc2c1` (stereo not drawn), the IC50 in the data set on SW-620 is greater than 100 µM; with L1210, greater than 250 µM; in data set [1], greater than 250 µM; in the data set on MCF7, 28 µM; in the data set on CCRF-CEM, greater than 250 µM; in the data set on HeLa, greater than 250 µM. For the same compound, the IC50 is greater than 100 µM in data set [3] and greater than 250 µM in data set [4]. Besides, the Activity in [2] is 18%; in data set [5], 40%. In addition, in data set [6], the “inhibition (INH)” value came out at 49%. In [7], the inhibition was found to be 6%.
With `O=C(NC(c1ccccc1)c1ccc(Cl)cc1)NC(c1ccccc1)c1ccc(Cl)cc1` (stereo not drawn), the concentration for half-maximal inhibition (IC50) is greater than 100 µM in the data set with SW-620; 250 µM in the data set with L1210; 97 µM in data set [1]; greater than 100 µM in the data set on MCF7; greater than 250 µM in the data set with CCRF-CEM; greater than 250 µM in the data set on HeLa. In addition, the half-inhibitory concentration (IC50) in [3] is greater than 100 µM; in data set [4], greater than 250 µM. For the same compound, the Activity entry in data set [2] and in data set [5] was “Not Active” each time. In addition, the “inhibition (INH)” value in data set [6] is 33%. Moreover, in data set [7], the inhibition is 38%.
As for `COc1cc(NC(C)CCCNC(=O)NNC(=O)N(CCO)CCO)c2ncccc2c1` (stereo not drawn), the 50% inhibitory concentration (IC50) in the data set with SW-620 was greater than 100 µM; in the data set on L1210, greater than 250 µM; in data set [1], greater than 250 µM; with MCF7 it was 29 µM; in the data set with CCRF-CEM, greater than 250 µM; with HeLa, greater than 250 µM. In addition, the IC50 in [3] was greater than 100 µM; in [4], greater than 250 µM. Moreover, the Activity in data set [2] is listed as 25%; in [5] it was 45%. Also, in data set [6], the “inhibition (INH)” value came out at 43%. The compound further showed an inhibition in data set [7] of 30%.
With `COc1cc(NC(C)CCCNC(=O)NCCCC(C)Nc2cc(OC)cc3cccnc23)c2ncccc2c1` (stereo not drawn), the 50% inhibitory concentration (IC50) is greater than 100 µM with SW-620; 92 µM in the data set on L1210; 186 µM in [1]; 6 µM in the data set with MCF7; 5 µM in the data set on CCRF-CEM; greater than 250 µM with HeLa. In addition, the IC50 in [3] is greater than 100 µM; in data set [4], greater than 250 µM. Moreover, the Activity in data set [2] was 20%; in [5] it was 32%. Besides, in [6], the “inhibition (INH)” value was 89%. In data set [7], this compound displayed an inhibition of 6%.
In the case of `NNC(=O)NC(c1ccccc1)c1ccc(Cl)cc1` (stereo not drawn), the 50% inhibitory concentration (IC50) in the data set on SW-620 was greater than 100 µM; with L1210 it was no less than 250 µM; in data set [1] it was 178 µM; in the data set with MCF7, no less than 100 µM; with CCRF-CEM, 217 µM; in the data set with HeLa it was 182 µM. In addition, the half-maximal inhibitory concentration (IC50) was greater than 100 µM in data set [3] and no less than 250 µM in data set [4]. For the same compound, the Activity in data set [2] is 14%; in [5] it was 27%. For the same compound, in data set [6], the “inhibition (INH)” value worked out at 52%. In addition, the inhibition in data set [7] was 9%.
For `Cc1c(C)c2c(c(C)c1O)CCC(C)(C(=O)O)O2` (stereo not drawn) [TROLOX], in data set [6], the “inhibition (INH)” value was found to be 63%.
For the compound `CCOC(=O)NC(c1ccccc1)c1ccc(Cl)cc1` (stereo not drawn), the 50% inhibitory concentration (IC50) with SW-620 is greater than 100 µM; with L1210, greater than 250 µM; in data set [1], 142 µM; in the data set with MCF7 it was greater than 100 µM; with CCRF-CEM it was greater than 250 µM; in the data set with HeLa, greater than 250 µM. For the same compound, the figures for the IC50 in data set [3] and in [4] were greater than 100 µM and greater than 250 µM, respectively. The Activity result in [2] and in data set [5] was “Not Active” in each case. The “inhibition (INH)” value in [6] was found to be 21%.
Turning to `O=C1NCCN1C(c1ccccc1)(c1ccccc1)c1ccccc1`, the IC50 was no less than 100 µM in the data set with SW-620; 68 µM in the data set with L1210; 31 µM in data set [1]; 63 µM in the data set on MCF7; 27 µM in the data set on CCRF-CEM; 102 µM in the data set with HeLa. Besides, the concentration for half-maximal inhibition (IC50) in data set [3] was greater than 100 µM; in data set [4], 21 µM. For the same compound, the Activity result in data set [2] and in data set [5] was “Not Active” throughout. The “inhibition (INH)” value in data set [6] stood at 20%. Also, in data set [7], the inhibition was found to be 6%.
On to `COc1cc(NC(C)CCCNC(=O)NN)c2ncccc2c1` (stereo not drawn), for which the IC50 was greater than 100 µM in the data set with SW-620; greater than 250 µM with L1210; no less than 250 µM in data set [1]; 16 µM in the data set with MCF7; greater than 250 µM with CCRF-CEM; no less than 250 µM with HeLa. For the same compound, the figures for the IC50 in data set [3] and in data set [4] were greater than 100 µM and no less than 250 µM, respectively. Further, the Activity in [2] was 61%; in data set [5], 82%. Also, the “inhibition (INH)” value in data set [6] stood at 70%. In data set [7], the inhibition turned out to be 42%.
On to `COc1cc(NC(C)CCCNC(=O)N(C)C(c2ccccc2)c2ccccc2)c2ncccc2c1` (stereo not drawn), for which the half-inhibitory concentration (IC50) with SW-620 was greater than 100 µM; with L1210, 6.7 µM; in [1] it was 21 µM; with MCF7, 9 µM; in the data set with CCRF-CEM, 5.2 µM; in the data set on HeLa, 121 µM. Moreover, the half-maximal inhibitory concentration (IC50) in data set [3] was no less than 100 µM; in data set [4] it was 10 µM. Also, the Activity in data set [2] worked out at 20%; in data set [5], 16%. Moreover, the “inhibition (INH)” value in data set [6] worked out at 79%.
`CCOC(=O)N(C)C(c1ccccc1)c1ccccc1`: the IC50 with SW-620 was determined as 27 µM; in the data set on L1210, 96 µM; in data set [1] it was 94 µM; in the data set on MCF7 it was 26 µM; in the data set with CCRF-CEM, 108 µM; in the data set on HeLa it was 80 µM. Besides, the half-maximal inhibitory concentration (IC50) in data set [3] is no less than 100 µM; in data set [4], 105 µM. Further, the Activity result in data set [2] and in data set [5] was “Not Active” throughout. The “inhibition (INH)” value in [6] is given as “Not Active”.
Regarding `COc1cc(NC(C)CCCNC(=O)NNC(=O)NCCCCCO)c2ncccc2c1` (stereo not drawn), the half-inhibitory concentration (IC50) was greater than 100 µM with SW-620; greater than 250 µM in the data set on L1210; 168 µM in data set [1]; 4 µM in the data set on MCF7; 170 µM in the data set on CCRF-CEM; no less than 250 µM in the data set with HeLa. In addition, the 50% inhibitory concentration (IC50) in [3] was greater than 100 µM; in [4], no less than 250 µM. Besides, the Activity in data set [2] is on record as 14%; in data set [5], 32%. Moreover, the “inhibition (INH)” value in data set [6] stood at 54%. The compound further returned an inhibition in [7] of 4%.
With `CN(C(=O)NN)C(c1ccccc1)c1ccccc1`, the IC50 in the data set with SW-620 was greater than 100 µM; in the data set with L1210 it was no less than 250 µM; in data set [1], 127 µM; in the data set with MCF7, no less than 100 µM; with CCRF-CEM, 127 µM; in the data set on HeLa, 174 µM. For the same compound, the IC50 was greater than 100 µM in data set [3] and 144 µM in data set [4]. Also, the Activity in data set [2] is given as 24%; in [5], 47%. Also, the “inhibition (INH)” value in data set [6] was 7%.
Take `COc1cc(NC(C)CCCNC(=O)Nc2ccc(Cl)c(C(F)(F)F)c2)c2ncccc2c1` (stereo not drawn): the IC50 with SW-620 is 23 µM; with L1210 it was 3.6 µM; in [1] it was 4 µM; in the data set on MCF7, 4 µM; in the data set with CCRF-CEM it was 3.1 µM; with HeLa, 3.9 µM. For the same compound, the IC50 in data set [3] is 28 µM; in data set [4] it was 3.4 µM. The Activity came to 20% in data set [2] and 21% in data set [5]. In data set [6], the “inhibition (INH)” value is 61%. This compound also returned an inhibition in data set [7] of 43%.

One may read the IC50 as the concentration needed to halve the response being measured. By inhibition is commonly meant the drop in the measured response relative to a control, in per cent. Higher therefore signals a strong effect.
